In the supplement of paper PMC11208160:

Assay: recombinant UMI read abundance after kanamycin selection (control-corrected) (log10(CPM+1)); higher = more efficient recombination; extreme values may be limits of the assay; sequences stand for … in AGTGCAGAGAAAATCGGCCAGTTTTCTCTGCCTGCAGTCCGCATGCCGTGGGACCCCTTGGGTTCTAACCTGTTGCCTAGATTTATGCAGCGGACTGCCTTTCTCCCAAAGTGATAAACCGG…AGGTTGGTTTCACT; site = the 11-nt donor
Summary of the method: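 Values are reported as log10(CPM+1), obtained by converting sequencing counts to CPM, averaging replicates and scaling by control-derived factors. The counts came from recombinant UMIs amplified by PCR across the donor–target junction. These UMIs came from a pooled Escherichia coli screen of donor and donor-binding-loop pairs for the IS621 bridge recombinase, plated with IPTG (0.07 mM) plus kanamycin or left unselected, in two replicates each.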
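Note: IS621 bridge recombinase in Escherichia coli cells against a fixed T5 target plasmid.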

| Sequence | recombinant UMI read abundance (log10) |
| --- | --- |
| GCCACGCCATGGACCGGTTTTCCCGGTAATCCGTATTTGTA (site GCCACCCCTTA) | 0.0213 |
| GCCACGCCATGGACCGGTTTTCCCGGTAATCCGTATTTGTA (site GCCACGACTTA) | 0.00736 |
| GCCACGCCATGGACCGGTTTTCCCGGTAATCCGTATTTGTA (site GCCACGCCTAA) | 0.0376 |
| GCCACGCCATGGACCGGTTTTCCCGGTAATCCGTATTTGTA (site GCCACGCCTCA) | 0.00817 |
| GCCACGCCATGGACCGGTTTTCCCGGTAATCCGTATTTGTA (site GCCACGCCTGA) | 0 |
| GCCACGCCATGGACCGGTTTTCCCGGTAATCCGTATTTGTA (site GCCACGCCTTA) | 0.289 |
| GCCACGCCATGGACCGGTTTTCCCGGTAATCCGTATTTGTA (site GCCACGCCTTC) | 0.00289 |
| GCCACGCCATGGACCGGTTTTCCCGGTAATCCGTATTTGTA (site GCCACGCCTTG) | 0.0133 |
| GCCACGCCATGGACCGGTTTTCCCGGTAATCCGTATTTGTA (site GCCACGCCTTT) | 0.0209 |
| GCCACGCCATGGACCGGTTTTCCCGGTAATCCGTATTTGTA (site GCCACGGCTTA) | 0.0146 |
| GCCACGCCATGGACCGGTTTTCCCGGTAATCCGTATTTGTA (site GCCACGTCTTA) | 1.45 |
| GCCACGCCATGGACCGGTTTTCCCGGTAATCCGTATTTGTA (site GCCACTCCTTA) | 0 |
| GCCACGCCATGGACCGGTTTTCCCGGTAATCCGTATTTGTA (site GCCAGGCCTTA) | 0.013 |
| GCCACGCCATGGACCGGTTTTCCCGGTAATCCGTATTTGTA (site GCCATGCCTTA) | 0.465 |
| GCCACGCCATGGACCGGTTTTCCCGGTAATCCGTATTTGTA (site GCCCCGCCTTA) | 0.00659 |
| GCCACGCCATGGACCGGTTTTCCCGGTAATCCGTATTTGTA (site GCCGCGCCTTA) | 0.00414 |
| GCCACGCCATGGACCGGTTTTCCCGGTAATCCGTATTTGTA (site GCCTCGCCTTA) | 0.183 |
| GCCACGCCATGGACCGGTTTTCCCGGTAATCCGTATTTGTA (site GCGACGCCTTA) | 0.00719 |
| GCCACGCCATGGACCGGTTTTCCCGGTAATCCGTATTTGTA (site GCTACGCCTTA) | 0.0265 |
| GCCACGCCATGGACCGGTTTTCCCGGTAATCCGTATTTGTA (site GGCACGCCTTA) | 0.204 |
| GCCACGCCATGGACCGGTTTTCCCGGTAATCCGTATTTGTA (site GTCACGCCTTA) | 0.00531 |
| GCCACGCCATGGACCGGTTTTCCCGGTAATCCGTATTTGTA (site TCCACGCCTTA) | 0.00575 |
| GCCACTCCATGGACCGGTTTTCCCGGTAATCCGTATTTGGG (site GCCACTCCTCC) | 0.0141 |
| GCCACTCCATGGACCGGTTTTCCCGGTAATCCGTATTTGTA (site GCCACACCTTA) | 0.0288 |
| GCCACTCCATGGACCGGTTTTCCCGGTAATCCGTATTTGTA (site GCCACCCCTTA) | 0.0122 |

| Sequence | recombinant UMI read abundance (log10) |
| --- | --- |
| GCCACTCCATGGACCGGTTTTCCCGGTAATCCGTATTTGTA (site GCCACGCCTTA) | 0.00354 |
| GCCACTCCATGGACCGGTTTTCCCGGTAATCCGTATTTGTA (site GCCACTCCTTA) | 1.35 |
| GCCAGGCCATGGACCGGTTTTCCCGGTAATCCGTATTTGAA (site GCCAGGCCTTT) | 0.0165 |
| GCCCAATCATGGACCGGTTTTCCCGGTAATCCGTATTTGGT (site GCCCAATCTAC) | 1.53 |
| GCCCAGCCATGGACCGGTTTTCCCGGTAATCCGTATTTGGT (site GCCCAGCCTAC) | 0.0164 |
| GCCCGCTCATGGACCGGTTTTCCCGGTAATCCGTATTTGCG (site GCCCGCTCTCG) | 2.44 |
| GCCCGTACATGGACCGGTTTTCCCGGTAATCCGTATTTGCT (site GCCCGTACTAG) | 2.32 |
| GCCCTTGCATGGACCGGTTTTCCCGGTAATCCGTATTTGAC (site GCCCTTGCTGT) | 1.06 |
| GCCGATGCATGGACCGGTTTTCCCGGTAATCCGTATTTGGA (site GCCGATGCTTC) | 1.45 |
| GCCGCGGCATGGACCGGTTTTCCCGGTAATCCGTATTTGGA (site GCCGCGGCTTC) | 0.468 |
| GCCTACACATGGACCGGTTTTCCCGGTAATCCGTATTTGTC (site GCCTACACTGA) | 1.8 |
| GCCTACCCATGGACCGGTTTTCCCGGTAATCCGTATTTGGC (site GCCTACCCTGC) | 0 |
| GCCTATGCATGGACCGGTTTTCCCGGTAATCCGTATTTGTC (site GCCTATGCTGA) | 1.57 |
| GCCTCGCCATGGACCGGTTTTCCCGGTAATCCGTATTTGCT (site GCCTCGCCTAG) | 0 |
| GCCTCGCCATGGACCGGTTTTCCCGGTAATCCGTATTTGTA (site GCCACGCCTTA) | 0.00387 |
| GCCTCGCCATGGACCGGTTTTCCCGGTAATCCGTATTTGTA (site GCCCCGCCTTA) | 0.633 |
| GCCTCGCCATGGACCGGTTTTCCCGGTAATCCGTATTTGTA (site GCCGCGCCTTA) | 0.00878 |
| GCCTCGCCATGGACCGGTTTTCCCGGTAATCCGTATTTGTA (site GCCTCGCCTTA) | 0.0151 |
| GCCTGAACATGGACCGGTTTTCCCGGTAATCCGTATTTGCA (site GCCTGAACTTG) | 2.12 |
| GCCTTATCATGGACCGGTTTTCCCGGTAATCCGTATTTGAA (site GCCTTATCTTT) | 0.731 |
| GCGAAAACATGGACCGGTTTTCCCGGTAATCCGTATTTGCG (site GCGAAAACTAG) | 0 |
| GCGAAAACATGGACCGGTTTTCCCGGTAATCCGTATTTGCG (site GCGAAAACTCG) | 2.63 |
| GCGAAAACATGGACCGGTTTTCCCGGTAATCCGTATTTGCG (site GCGAAAACTGG) | 0 |
| GCGAAAACATGGACCGGTTTTCCCGGTAATCCGTATTTGCG (site GCGAAAACTTG) | 0 |
| GCGAAAACATGGACCGGTTTTCCCGGTAATCCGTATTTGGT (site GCGAAAACTAA) | 0.0141 |

| Sequence | recombinant UMI read abundance (log10) |
| --- | --- |
| GCGAAAACATGGACCGGTTTTCCCGGTAATCCGTATTTGGT (site GCGAAAACTAC) | 1.58 |
| GCGAAAACATGGACCGGTTTTCCCGGTAATCCGTATTTGGT (site GCGAAAACTAG) | 0 |
| GCGAAAACATGGACCGGTTTTCCCGGTAATCCGTATTTGGT (site GCGAAAACTAT) | 0 |
| GCGAAAGCATGGACCGGTTTTCCCGGTAATCCGTATTTGCT (site GCGAAAACTAG) | 0 |
| GCGAAAGCATGGACCGGTTTTCCCGGTAATCCGTATTTGCT (site GCGAAACCTAG) | 0 |
| GCGAAAGCATGGACCGGTTTTCCCGGTAATCCGTATTTGCT (site GCGAAAGCTAG) | 1.01 |
| GCGAAAGCATGGACCGGTTTTCCCGGTAATCCGTATTTGCT (site GCGAAATCTAG) | 0 |
| GCGAACACATGGACCGGTTTTCCCGGTAATCCGTATTTGCT (site GCGAAAACTAG) | 0 |
| GCGAACACATGGACCGGTTTTCCCGGTAATCCGTATTTGCT (site GCGAACACTAG) | 1.91 |
| GCGAACACATGGACCGGTTTTCCCGGTAATCCGTATTTGCT (site GCGAAGACTAG) | 0 |
| GCGAACACATGGACCGGTTTTCCCGGTAATCCGTATTTGCT (site GCGAATACTAG) | 0.025 |
| GCGAAGCCATGGACCGGTTTTCCCGGTAATCCGTATTTGTG (site GCGAAGCCTCA) | 0.643 |
| GCGAAGCCATGGACCGGTTTTCCCGGTAATCCGTATTTGTG (site GCGAAGCCTCC) | 0.021 |
| GCGAAGCCATGGACCGGTTTTCCCGGTAATCCGTATTTGTG (site GCGAAGCCTCG) | 0.0255 |
| GCGAAGCCATGGACCGGTTTTCCCGGTAATCCGTATTTGTG (site GCGAAGCCTCT) | 1.98 |
| GCGAAGCCATGGACCGGTTTTCCCGGTAATCCGTATTTGTT (site GCGAAGCCTAA) | 1.14 |
| GCGACAACATGGACCGGTTTTCCCGGTAATCCGTATTTGCT (site GCGAAAACTAG) | 0 |
| GCGACAACATGGACCGGTTTTCCCGGTAATCCGTATTTGCT (site GCGACAACTAG) | 1.97 |
| GCGACAACATGGACCGGTTTTCCCGGTAATCCGTATTTGCT (site GCGAGAACTAG) | 0 |
| GCGACAACATGGACCGGTTTTCCCGGTAATCCGTATTTGCT (site GCGATAACTAG) | 0.37 |
| GCGACAACATGGACCGGTTTTCCCGGTAATCCGTATTTGGT (site GCGACAACTAC) | 2.46 |
| GCGATTCCATGGACCGGTTTTCCCGGTAATCCGTATTTGTC (site GCGATTCCTGA) | 1.78 |
| GCGCAGCCATGGACCGGTTTTCCCGGTAATCCGTATTTGGG (site GCGAAGCCTCC) | 0.0174 |
| GCGCAGCCATGGACCGGTTTTCCCGGTAATCCGTATTTGGG (site GCGCAGCCTCC) | 0.00363 |
| GCGCAGCCATGGACCGGTTTTCCCGGTAATCCGTATTTGGG (site GCGGAGCCTCC) | 0.0138 |
